Legend:
Agam\Orco = molecular target: T1, Agam\Orco (Anopheles gambiae, UniProt Q7QCC7); assay: Antagonism of OLC12 activation of Orco in Xenopus oocytes; assay type: cell-based; settings: 30µM OLC12, 10µM tryptamine
T1 sequence (Q7QCC7 1-478): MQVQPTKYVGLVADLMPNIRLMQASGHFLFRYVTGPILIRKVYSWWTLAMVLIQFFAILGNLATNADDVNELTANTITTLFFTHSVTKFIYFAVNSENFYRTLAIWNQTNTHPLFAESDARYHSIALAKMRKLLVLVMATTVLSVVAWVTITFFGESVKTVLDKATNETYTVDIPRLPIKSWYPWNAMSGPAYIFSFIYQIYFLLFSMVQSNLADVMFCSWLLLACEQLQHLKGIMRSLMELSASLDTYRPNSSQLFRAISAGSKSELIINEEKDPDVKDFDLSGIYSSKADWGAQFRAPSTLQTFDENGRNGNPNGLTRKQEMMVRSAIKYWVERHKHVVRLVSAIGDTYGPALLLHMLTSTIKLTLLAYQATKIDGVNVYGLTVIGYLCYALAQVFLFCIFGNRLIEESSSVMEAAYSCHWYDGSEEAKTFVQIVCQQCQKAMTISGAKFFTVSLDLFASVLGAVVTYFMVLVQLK
Protocol: (§1) Follicle cells were removed by treatment with collagenase B (Boehringer Mannheim) for 2 hours at room temperature. Capped cRNA encoding each OR subunit was generated using mMessage mMachine kits (Ambion). For heteromeric ORs, 25 ng of cRNA encoding each OR subunit was injected into Stage V-VI Xenopus oocytes. For expression of Orco homomers, 50 ng of cRNA was injected. Oocytes were incubated at 18°C in Barth's saline (in mM: 88 NaCl, 1 KCl, 2.4 NaHCO 3, 0.3 CaNO 3, 0.41 CaCl 2, 0.82 MgSO 4, 15 HEPES, pH 7.6, and 150µg/ml ceftazidime) for 2–5 days prior to electrophysiological recording.
(§2) Odorant and Orco ligand induced currents were recorded under two-electrode voltage clamp, using an automated parallel electrophysiology system (OpusExpress 6000A, Molecular Devices). Oocytes were perfused with ND96 (in mM: 96 NaCl, 2 KCl, 1 CaCl 2, 1 MgCl 2, 5 HEPES, pH 7.5). Orco ligands were prepared as 50 or 100 mM stock solutions in DMSO and then diluted into ND96 on the day of the experiment. Odorants were prepared as 100 mM stock solutions in DMSO and then diluted into ND96. Unless otherwise noted, applications were for 60 sec at a flow rate of 1.0 ml/min, with extensive washing in ND96 at 4.6 ml/min between applications. Micropipettes were filled with 3 M KCl and had resistances of 0.2–2.0 MΩ. The holding potential was -70 mV. […]

Dmel\Orco = molecular target: T2, Dmel\Orco (Drosophila melanogaster, UniProt Q9VNB5); assay: as above; assay type: cell-based; settings: 20µM OLC12, 10µM tryptamine
T2 sequence (Q9VNB5 1-486): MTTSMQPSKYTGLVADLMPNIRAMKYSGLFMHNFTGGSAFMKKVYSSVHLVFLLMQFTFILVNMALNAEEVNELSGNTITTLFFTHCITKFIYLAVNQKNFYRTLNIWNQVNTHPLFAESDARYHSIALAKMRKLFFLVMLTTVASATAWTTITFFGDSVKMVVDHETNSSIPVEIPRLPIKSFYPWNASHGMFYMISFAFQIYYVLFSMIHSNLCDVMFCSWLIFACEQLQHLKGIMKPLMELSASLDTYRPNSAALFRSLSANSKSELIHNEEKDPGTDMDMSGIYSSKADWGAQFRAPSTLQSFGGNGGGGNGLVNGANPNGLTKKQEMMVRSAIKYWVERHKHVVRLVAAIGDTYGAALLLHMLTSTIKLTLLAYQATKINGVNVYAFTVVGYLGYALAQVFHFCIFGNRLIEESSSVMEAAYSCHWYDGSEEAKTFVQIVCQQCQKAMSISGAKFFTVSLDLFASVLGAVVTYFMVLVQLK
Protocol: as §1, §2

NCCc1c[nH]c2ccccc12 [tryptamine]
inhibition of OLC12 activation of Orco (Agam\Orco): inhibited OLC12 activation of Orco from each of these three insect species
inhibition of OLC12 activation of Orco (Dmel\Orco): inhibited OLC12 activation of Orco from each of these three insect species
